Results from patent publication EP0455830B1, “MEDICINE CONTAINING THIAZINE DIOXIDE DERIVATIVE” (NIPPON HYPOX LABORATORIES INCORPORATED, priority 1989, dated 1991).
Where “and” joins values, the source holds several entries; their conditions need not be identical. Equal values may be shown once. Read-outs that look alike come from different tables or passages of the source.

What was measured:
[1] = test system: vomiting caused by cisplatin; experiment: Effect on inhibition of vomiting caused by cisplatin -1 (Example 6), degree of vomiting per dog; format: in vivo; set-up: key: III: Extreme; II: Moderate; I: Slight; 0: No vomiting; conditions: 20 mg/kg p.o. (capsule) 30 min before i.v. cisplatin; individual dogs
Procedure: Effect on inhibition of vomiting caused by cisplatin -1
Five dogs (7 - 12.5 kg) per group were admininistered intravenously with 0.4 mg/kg of cisplatin per day for the initial 3 days and with 0.8 mg/kg of cisplatin per day for the subsequent 1 day. HX-1920 in a dose of 20 mg/kg was encapsulated and administered 30 minutes before the intravenous administration of cisplatin. Separately, Nauzelin (trade name, manufactured by Kyowa Hakko Kogyo Co., Ltd.), which was a domperidone type antiemetic, was administered to another group of five dogs in a dose of 2 mg/kg for 7 days. […] The vomiting was cured after 24 hours. However, the same symptom was repeatedly manifested when cisplatin was administered. […] Thus, the effect of HX-1920 on the alleviation of the vomit-inducing activity of the carcinostatic cisplatin was evident.

[2] = test system: nephritis caused by cisplatin; experiment: Effect on nephritis caused by cisplatin -1 (Example 2); format: in vivo, female Fischer rats; conditions: with cisplatin 2 mg/kg hypodermically for 5 days, 24 h after final administration
Procedure: Effect on nephritis caused by cisplatin -1
Five female Fischer rats (5 weeks of age) per group were administered hypodermically with 2 mg/kg of cisplatin for 5 days, and at the same time, HX-1920 was administered orally in a dose of 50 mg or 150 mg/kg, or administered intraperitoneally in a dose of 10 or 30 mg/kg. Twenty-four hours after the final administration, the rats were sacrificed, and their blood urea nitrogen (BUN) and creatinine were measured.

[3] = test system: stomach contraction caused by cisplatin; experiment: Effect on inhibition of stomach contraction caused by cisplatin (Example 8); format: in vivo, female Fischer rats; conditions: with cisplatin 2 mg/kg subcutaneously once a day for 4 days
Procedure: Effect on inhibition of stomach contraction caused by cisplatin
Cisplatin in a dose of 2 mg/kg was administered subcutaneously into female Fischer rats (5 weeks of age) once a day for 4 days, and at the same time, HX-1920 was administered intraperitoneally or orally.
[…] For the cisplatin non-administered group and the cisplatin administered vehicle control group, 1 ml/day of a 1 % gum arabic solution was administered per rat.

[4] = test system: nephritis caused by cisplatin; experiment: Effect on nephritis caused by cisplatin - 3 (Example 4), BUN and survival; format: in vivo, male ICR rats; conditions: with cisplatin 3 mg/kg subcutaneously for 4 days
Procedure: Effect on nephritis caused by cisplatin - 3
Ten male ICR rats (8 weeks of age) per group were administered subcutaneously with 3 mg/kg of cisplatin for 4 days, and at the same, HX-1920 was orally administered in a dose of 100 mg/kg. Sixteen hours after the final administration, 5 rats of each group were measured for blood urea nitrogen (BUN), and the survival ratios of the remaining 5 rats of each group for the subsequent 5 days were examined. […] Thus, the effect of the administration of HX-1920 on the alleviation of renal dysfunctions was observed. […]

[5] = test system: nephritis caused by cisplatin; experiment: Effect on nephritis caused by cisplatin - 4 (Example 5); format: in vivo, female F344 rats; conditions: for BUN / Creatinine: cisplatin 1 mg/kg hypodermically for 8 days, 24 h after final cisplatin; for inhibition at 100 mg/kg: Rattus norvegicus, po, 100 mg/kg p.o., inhibition of the cisplatin-induced increase
Procedure: Effect on nephritis caused by cisplatin - 4
Six to seven female F344 rats per group weighing about 150 g, per group, were administered hypodermically in the dorsal portion with 1 mg/kg of cisplatin dissolved in a physiological saline solution once a day over 8 days. Twenty-four hours after the final administration of the cisplatin, the rats were anesthtized with ether, and the blood was collected from each rat, centrifuged and measured for blood urea nitrogen (BUN) and creatinine with an autoanalyzer Olympus AU-550.
HX-1920 which was a substance to be tested was dissolved in a 2.5 % NaHCO₃, and the resultant solution was administered orally in a dose of 10 or 100 mg/kg over 8 days immediately before the administration of the cisplatin.
The increases in BUN and creatinine by the administration of cisplatin are considered to be characteristics in acute renal failure. […]

[6] = test system: nephritis caused by cisplatin; experiment: Effect on nephritis caused by cisplatin - 2 (Example 3); format: in vivo, female Fischer rats; conditions: with cisplatin 1 mg/kg hypodermically for 8 days, 24 h after final administration
Procedure: Effect on nephritis caused by cisplatin - 2
Six female Fischer rats (8 weeks of age) per group were administered hypodermically with 1 mg/kg of cisplatin for 8 days, and at the same time, HX-1920 was administered orally in a dose of 10 mg or 100 mg/kg. In both the administrations, the blood urea nitrogen (BUN) and creatinine measured 24 hours after the final administration tended to show lower values. […]

[7] = test system: vomiting induced by the cisplatin; experiment: Effect on inhibition of vomiting caused by cisplatin -2 (Example 7), manifestation ratio; format: in vivo, mongrel dogs
Procedure: Effect on inhibition of vomiting caused by cisplatin -2
Female and male mongrel dogs weiging about 10 kg were administered intravenously with 0.4 mg/kg/day of cisplatin dissolved in a physiological saline solution for the initial 3 days and with 0.8 mg/kg/day of cisplatin for the subsequent 4 days to examine the effects of substances to be tested on the basis of a manifestation ratio, as an index, of vomiting induced by the cisplatin.
HX-1920, which was a substance to be tested, was dissolved in a 10 % Nikkol solution (Nikkol: trade name, dissolving aid manufactured by Nikko Chemical Co., Ltd.) containing 1 % NaHCO₃, and put into gelatin soft capsules, and the capsules were administered orally 30 minutes before the administration of cisplatin.
In addition, as a known domperidone type antiemetic, a 1 % Nauzelin powder was put into gelatin soft capsules, and administered orally 30 minutes before the administration of cisplatin.

[8] = 10 mg/kg/day p.o. in 2.5 % NaHCO3 over 8 days
[9] = 100 mg/kg/day p.o. in 2.5 % NaHCO3 over 8 days
[10] = 20 mg/kg orally in capsules 30 min before i.v. cisplatin (0.4 mg/kg/day 3 days, then 0.8 mg/kg/day 4 days)

## CN1C(C(=O)Nc2ccccc2-c2nnn[nH]2)=C(O)c2ccccc2S1(=O)=O [HX-1920, 4-hydroxy-2-methyl-N-(2-(1H-tetrazol-5-yl)phenyl)2H-1,2-benzothiazine-3-carboxamide-1,1-dioxide]
[1]
  Degree of vomiting 5th day: 0 (4×) and I
  Degree of vomiting 6th day: I (2×) and 0 (3×)
  Degree of vomiting 7th day: I (3×) and 0 (2×)
[2]; 10 mg/kg/day i.p.
  BUN: 102.8 ± 29.5 mg/dL
  Creatinine: 0.70 ± 0.04 mg/dL
[2]; 30 mg/kg/day i.p.
  BUN: 69.6 ± 22.2 mg/dL
  Creatinine: 0.65 ± 0.04 mg/dL
[2]; 50 mg/kg/day p.o.
  BUN: 138.1 ± 47.6 mg/dL
  Creatinine: 0.83 ± 0.31 mg/dL
[2]; 150 mg/kg/day p.o.
  BUN: 91.1 ± 58.6 mg/dL
  Creatinine: 0.65 ± 0.11 mg/dL
[3]; 10 mg/kg i.p.
  Diameter of center of stomach: 0.97±0.07 mm
[3]; 30 mg/kg i.p.
  Diameter of center of stomach: 1.18±0.07 mm
[3]; 150 mg/kg p.o.
  Diameter of center of stomach: 1.14±0.07 mm
[4]; 100 mg/kg p.o., subsequent 5 days, all vehicle control rats died
  survival (in words): all of the five rats of the HX-1920 administered group survived
[4]; 100 mg/kg/day p.o., 16 h after final administration
  BUN: 78.3 ± 45.7 mg/dL
[4]; 100 mg/kg/day p.o., survival over the subsequent 5 days
  Survival ratio: 100%
[5]; 10 mg/kg p.o.
  inhibition activity against increase in BUN and creatinine (in words): did not exhibit clear inhibition activity
[5]; [8]
  BUN: 51.1 ± 16.5 mg/dL
  Creatinine: 1.15 ± 0.29 mg/dL
[5]; [9]
  BUN: 38.0 ± 6.1 mg/dL
  Creatinine: 0.96 ± 0.05 mg/dL
[5]; read-out: inhibition activity in BUN
  inhibition at 100 mg/kg: 38%
[5]; read-out: inhibition activity in creatinine
  inhibition at 100 mg/kg: 25%
[6]; 10 mg/kg/day p.o.
  BUN: 51.1 ± 16.5 mg/dL
  Creatinine: 1.15 ± 0.29 mg/dL
[6]; 100 mg/kg/day p.o.
  BUN: 38.0 ± 6.4 mg/dL
  Creatinine: 0.96 ± 0.05 mg/dL
[7]; [10]
  Vomiting manifestation ratio (%) 4th day: 29.4%
  Vomiting manifestation ratio (%) 5th day: 23.5%
  Vomiting manifestation ratio (%) 6th day: 29.4%
  Vomiting manifestation ratio (%) 7th day: 52.9%
[7]; 20 mg/kg orally, compared with the vehicle control group
  manifestation of vomiting (in words): clearly inhibited
